Test results as given in publication PMC6979384, “Characterization of the plant homeodomain (PHD) reader family for their histone tail interactions” (Epigenetics & Chromatin, 2020).

Key:
Assay in all cases: Histone peptide microarray
Format in all cases: binding, human
SP140L = settings: GST-tagged SP140L; sheet Array Heatmap; each array performed twice, total n = 4
How it was run: (§1)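 Binding read as mean relative signal from 4 replicates; microarray held 293 synthetic histone peptides with single or combinatorial PTMs. Each GST-tagged PHD reader was applied at 0.5 μM using the optimized Petell protocol.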

CHD5 (PPCC) = settings: GST-tagged CHD5 (PPCC = Dual PHD + Dual Chromodomain); sheet Array Heatmap; each array performed twice, total n = 4
How it was run: as §1

ING2 = settings: GST-tagged ING2; sheet Array Heatmap; each array performed twice, total n = 4
How it was run: as §1

PHF23 = settings: GST-tagged PHF23; sheet Array Heatmap; each array performed twice, total n = 4
How it was run: as §1

PHF21A = settings: GST-tagged PHF21A; sheet Array Heatmap; each array performed twice, total n = 4
How it was run: as §1

PHF8 = settings: GST-tagged PHF8; sheet Array Heatmap; each array performed twice, total n = 4
How it was run: as §1

ING4 = settings: GST-tagged ING4; sheet Array Heatmap; each array performed twice, total n = 4
How it was run: as §1

ING5 = settings: GST-tagged ING5; sheet Array Heatmap; each array performed twice, total n = 4
How it was run: as §1

MORC3 (CW) = settings: GST-tagged MORC3 (CW = CW-type Zn-finger); sheet Array Heatmap; each array performed twice, total n = 4
How it was run: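 Each reader, produced as a GST fusion and purified, was tested at 0.5 μM on synthetic histone peptides (293 in total) carrying single or combinatorial marks. Intensities averaged over four replicates.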

KDM5A (1) = settings: GST-tagged KDM5A (1); sheet Array Heatmap; each array performed twice, total n = 4
How it was run: as §1

TRIM66 (PB) = settings: GST-tagged TRIM66 (PB = PHD + Bromodomain); sheet Array Heatmap; each array performed twice, total n = 4
How it was run: as §1

CHD4 (PPCC) = settings: GST-tagged CHD4 (PPCC = Dual PHD + Dual Chromodomain); sheet Array Heatmap; each array performed twice, total n = 4
How it was run: as §1

PHF2 = settings: GST-tagged PHF2; sheet Array Heatmap; each array performed twice, total n = 4
How it was run: as §1

PHRF1 (RP) = settings: GST-tagged PHRF1 (RP); sheet Array Heatmap; each array performed twice, total n = 4
How it was run: as §1

RAG2 = settings: GST-tagged RAG2; sheet Array Heatmap; each array performed twice, total n = 4
How it was run: as §1

KDM5B (1) = settings: GST-tagged KDM5B (1); sheet Array Heatmap; each array performed twice, total n = 4
How it was run: as §1

BPTF (PB) = settings: GST-tagged BPTF (PB = PHD + Bromodomain); sheet Array Heatmap; each array performed twice, total n = 4
How it was run: as §1

KDM5B (3) = settings: GST-tagged KDM5B (3); sheet Array Heatmap; each array performed twice, total n = 4
How it was run: as §1

DIDO1 = settings: GST-tagged DIDO1; sheet Array Heatmap; each array performed twice, total n = 4
How it was run: as §1

KDM5A (3) = settings: GST-tagged KDM5A (3); sheet Array Heatmap; each array performed twice, total n = 4
How it was run: as §1

ING1 = settings: GST-tagged ING1; sheet Array Heatmap; each array performed twice, total n = 4
How it was run: as §1

KDM4C (TTP) = settings: GST-tagged KDM4C (TTP = Tandem Tudor domain + PHD); sheet Array Heatmap; each array performed twice, total n = 4
How it was run: as §1

BAZ2B = settings: GST-tagged BAZ2B; sheet Array Heatmap; each array performed twice, total n = 4
How it was run: as §1

PHF13 = settings: GST-tagged PHF13; sheet Array Heatmap; each array performed twice, total n = 4
How it was run: as §1

DPF2 (PPC2W2) = settings: GST-tagged DPF2 (PPC2W2 = Dual PHD + C2W2-type Zn-finger); sheet Array Heatmap; each array performed twice, total n = 4
How it was run: as §1

AIRE (PP) = settings: GST-tagged AIRE (PP); sheet Array Heatmap; each array performed twice, total n = 4
How it was run: as §1

MLL5 = settings: GST-tagged MLL5; sheet Array Heatmap; each array performed twice, total n = 4
How it was run: as §1

KDM7A = settings: GST-tagged KDM7A; sheet Array Heatmap; each array performed twice, total n = 4
How it was run: as §1

ING3 = settings: GST-tagged ING3; sheet Array Heatmap; each array performed twice, total n = 4
How it was run: as §1

CHD5 (PCC) = settings: GST-tagged CHD5 (PCC = PHD + Dual Chromodomain); sheet Array Heatmap; each array performed twice, total n = 4
How it was run: as §1

TAF3 = settings: GST-tagged TAF3; sheet Array Heatmap; each array performed twice, total n = 4
How it was run: as §1

| Substance | Array Heatmap signal (histone peptide microarray) (SP140L) | Array Heatmap signal (histone peptide microarray) (CHD5 (PPCC)) | Array Heatmap signal (histone peptide microarray) (ING2) | Array Heatmap signal (histone peptide microarray) (PHF23) | Array Heatmap signal (histone peptide microarray) (PHF21A) | Array Heatmap signal (histone peptide microarray) (PHF8) | Array Heatmap signal (histone peptide microarray) (ING4) | Array Heatmap signal (histone peptide microarray) (ING5) | Array Heatmap signal (histone peptide microarray) (MORC3 (CW)) | Array Heatmap signal (histone peptide microarray) (KDM5A (1)) | Array Heatmap signal (histone peptide microarray) (TRIM66 (PB)) | Array Heatmap signal (histone peptide microarray) (CHD4 (PPCC)) | Array Heatmap signal (histone peptide microarray) (PHF2) | Array Heatmap signal (histone peptide microarray) (PHRF1 (RP)) | Array Heatmap signal (histone peptide microarray) (RAG2) | Array Heatmap signal (histone peptide microarray) (KDM5B (1)) | Array Heatmap signal (histone peptide microarray) (BPTF (PB)) | Array Heatmap signal (histone peptide microarray) (KDM5B (3)) | Array Heatmap signal (histone peptide microarray) (DIDO1) | Array Heatmap signal (histone peptide microarray) (KDM5A (3)) | also measured |
| --- | --- | --- | --- | --- | --- | --- | --- | --- | --- | --- | --- | --- | --- | --- | --- | --- | --- | --- | --- | --- | --- |
| H3K4ac + K9ac + S10p + K14ac + K18ac: H3 1-20 | 0.3597 | 0.5941 | 0.5779 | 0.5331 | 0.4919 | 0.3899 | 0.4935 | 0.3888 | 0.3767 | 0.5046 | 0.6786 | 0.5822 | 0.4731 | 0.429 | 0.2541 | 0.6478 | 0.3689 | 0.4819 | 0.6753 | 0.4188 | Array Heatmap signal (histone peptide microarray) (ING1): 0.5313; Array Heatmap signal (histone peptide microarray) (KDM4C (TTP)): 0.5421; Array Heatmap signal (histone peptide microarray) (BAZ2B): 0.5889; Array Heatmap signal (histone peptide microarray) (PHF13): 0.6482; Array Heatmap signal (histone peptide microarray) (DPF2 (PPC2W2)): 0.6938; Array Heatmap signal (histone peptide microarray) (AIRE (PP)): 0.5295; Array Heatmap signal (histone peptide microarray) (MLL5): 0.555; Array Heatmap signal (histone peptide microarray) (KDM7A): 0.4698; Array Heatmap signal (histone peptide microarray) (ING3): 0.4823; Array Heatmap signal (histone peptide microarray) (CHD5 (PCC)): 0.8446; Array Heatmap signal (histone peptide microarray) (TAF3): 0.2701 |
| H3K4ac + K9ac: H3 1-20 | 0.3499 | 0.5625 | 0.6174 | 0.5225 | 0.4614 | 0.3733 | 0.4565 | 0.3535 | 0.3754 | 0.4969 | 0.6641 | 0.558 | 0.54 | 0.6615 | 0.2758 | 0.6807 | 0.3822 | 0.6207 | 0.6345 | 0.5679 | Array Heatmap signal (histone peptide microarray) (ING1): 0.5202; Array Heatmap signal (histone peptide microarray) (KDM4C (TTP)): 0.5223; Array Heatmap signal (histone peptide microarray) (BAZ2B): 0.5296; Array Heatmap signal (histone peptide microarray) (PHF13): 0.5976; Array Heatmap signal (histone peptide microarray) (DPF2 (PPC2W2)): 0.6975; Array Heatmap signal (histone peptide microarray) (AIRE (PP)): 0.5254; Array Heatmap signal (histone peptide microarray) (MLL5): 0.5339; Array Heatmap signal (histone peptide microarray) (KDM7A): 0.4244; Array Heatmap signal (histone peptide microarray) (ING3): 0.4596; Array Heatmap signal (histone peptide microarray) (CHD5 (PCC)): 0.8893; Array Heatmap signal (histone peptide microarray) (TAF3): 0.3083 |
